Reference: ChEMBL document CHEMBL1201862, “PubChem BioAssay data set” (2004)
Active and inactive are the calls of the source.

How the values were obtained:
[1] = target: T1, E3 ubiquitin-protein ligase XIAP (Homo sapiens, UniProt P98170); assay: small molecules displacing peptide from XIAP – biochemical, IAP family, fluorescence polarization (AID 1018); assay type: functional
[2] = target: T1, E3 ubiquitin-protein ligase XIAP; assay: Counter Screen using XIAP-Bir3 for Chemical Antagonists of Bir1/2 domains of IAP-family anti-apoptotic proteins. [Related pubchem assays (depositor defined):AID1018, AID1449, AID1514, AID1638, AID1749, AID1750, AID488957, AID488963]
T-cell = assay: loss of vesicle association with mouse CD8+ T cells – mouse 2C CD8+ T cells, flow cytometry, dose response (AID 485284); assay type: functional
Beta-galactosidase = Beta-galactosidase (Escherichia coli, UniProt Q8VNN2); assay: detection-enzyme interference by beta-gal modulators – biochemical, E. coli enzyme, set 3, artefact control for CCR6 antagonist project, dose response (AID 504712); assay type: functional
Sequence of Beta-galactosidase (Q8VNN2 whole entry): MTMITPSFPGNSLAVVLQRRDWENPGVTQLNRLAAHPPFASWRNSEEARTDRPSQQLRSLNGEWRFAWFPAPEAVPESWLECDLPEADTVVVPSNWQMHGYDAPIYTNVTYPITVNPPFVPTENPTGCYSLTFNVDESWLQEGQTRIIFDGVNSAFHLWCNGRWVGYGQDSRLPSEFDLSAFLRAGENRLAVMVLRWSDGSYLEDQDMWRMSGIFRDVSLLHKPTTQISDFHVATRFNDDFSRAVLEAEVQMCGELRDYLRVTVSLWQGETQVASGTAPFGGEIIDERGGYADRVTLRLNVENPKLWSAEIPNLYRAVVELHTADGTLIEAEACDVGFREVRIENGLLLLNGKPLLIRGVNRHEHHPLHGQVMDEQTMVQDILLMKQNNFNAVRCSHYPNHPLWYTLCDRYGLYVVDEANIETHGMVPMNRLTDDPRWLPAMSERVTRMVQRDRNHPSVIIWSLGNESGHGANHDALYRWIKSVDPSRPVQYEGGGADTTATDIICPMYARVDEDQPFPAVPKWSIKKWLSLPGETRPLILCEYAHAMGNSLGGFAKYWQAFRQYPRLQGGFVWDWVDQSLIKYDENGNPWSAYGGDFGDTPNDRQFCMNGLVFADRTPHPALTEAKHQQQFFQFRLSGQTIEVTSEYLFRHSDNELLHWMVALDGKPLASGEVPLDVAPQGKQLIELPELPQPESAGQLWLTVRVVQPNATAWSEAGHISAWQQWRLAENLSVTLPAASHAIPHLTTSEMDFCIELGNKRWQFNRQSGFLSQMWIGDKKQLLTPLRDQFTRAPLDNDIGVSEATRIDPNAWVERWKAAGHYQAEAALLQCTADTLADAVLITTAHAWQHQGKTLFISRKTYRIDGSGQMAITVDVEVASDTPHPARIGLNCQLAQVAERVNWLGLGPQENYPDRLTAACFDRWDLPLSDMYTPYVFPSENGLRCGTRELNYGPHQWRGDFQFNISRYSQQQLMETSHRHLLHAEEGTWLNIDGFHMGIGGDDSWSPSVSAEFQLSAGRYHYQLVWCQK

cells [3] = assay type: functional, cell-based
[4] = target: C-C chemokine receptor type 6 (Homo sapiens, UniProt P51684); assay: antagonism of CCR6 beta-arrestin recruitment – cell-based, luminescent beta-arrestin readout, dose response (AID 504728); assay type: functional
Sequence of C-C chemokine receptor type 6 (P51684 whole entry): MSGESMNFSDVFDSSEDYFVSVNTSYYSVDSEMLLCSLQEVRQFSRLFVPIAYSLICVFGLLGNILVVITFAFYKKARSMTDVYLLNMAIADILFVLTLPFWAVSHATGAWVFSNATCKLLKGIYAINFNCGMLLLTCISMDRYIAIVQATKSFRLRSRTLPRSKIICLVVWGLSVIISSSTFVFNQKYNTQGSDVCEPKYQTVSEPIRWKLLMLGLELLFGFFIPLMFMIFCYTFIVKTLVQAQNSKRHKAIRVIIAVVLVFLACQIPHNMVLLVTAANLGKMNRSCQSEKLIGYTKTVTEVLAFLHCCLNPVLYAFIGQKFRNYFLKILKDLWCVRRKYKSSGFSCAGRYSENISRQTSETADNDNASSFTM

Vero = assay: cells; assay type: functional; details: Chlorocebus sabaeus
cells [5] = assay type: functional, cell-based; remark: listed apart in the source
[6] = Luminescence Cell-Based Dose Response HTS to Identify Activators of Luciferase Translation or Activity in H4 […] Cells. [Related pubchem assays: 1829 (Project Summary), 1814 (Primary HTS)]; assay type: functional
[7] = Luminescence Cell-Based Dose Confirmation HTS to Identify Activators of 5'UTR Stem-Loop Driven Alpha-Synuclein mRNA Translation in H4 Neuroglioblastoma Cells. [Related pubchem assays: 1829 (Project Summary), 1814 (Primary HTS)]; assay type: functional
[8] = target: Sphingosine 1-phosphate receptor 4 (Homo sapiens, UniProt O95977); assay: Late-stage fluorescence dose response cell-based assay to identify agonists of the Sphingosine 1-Phosphate Receptor 4 (S1P4): purchased compounds EC50. [Related pubchem assays (depositor defined):AID1509, AID1523, AID1563, AID1686, AID1701, AID1801]; assay type: functional
Sequence of Sphingosine 1-phosphate receptor 4 (O95977 whole entry): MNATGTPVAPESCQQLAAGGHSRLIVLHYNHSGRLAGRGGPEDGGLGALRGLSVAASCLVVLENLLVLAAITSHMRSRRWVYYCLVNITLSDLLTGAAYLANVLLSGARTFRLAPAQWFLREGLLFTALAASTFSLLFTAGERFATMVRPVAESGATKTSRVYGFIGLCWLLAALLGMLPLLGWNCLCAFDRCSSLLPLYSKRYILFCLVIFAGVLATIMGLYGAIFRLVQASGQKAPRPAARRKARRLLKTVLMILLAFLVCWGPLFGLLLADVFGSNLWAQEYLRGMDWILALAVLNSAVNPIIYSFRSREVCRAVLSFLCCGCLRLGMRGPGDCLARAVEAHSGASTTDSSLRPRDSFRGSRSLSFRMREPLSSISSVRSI

[9] = target: T2, Kappa-type opioid receptor (Homo sapiens, UniProt P41145); assay: SAR analysis of small molecule antagonists of the kappa opioid receptor via a luminescent beta-arrestin assay - Set 6. [Related pubchem assays (depositor defined):AID1777, AID1778, AID1785, AID1786, AID1966, AID2133, AID2136, AID2285]; assay type: functional
T2 sequence (P41145 whole entry): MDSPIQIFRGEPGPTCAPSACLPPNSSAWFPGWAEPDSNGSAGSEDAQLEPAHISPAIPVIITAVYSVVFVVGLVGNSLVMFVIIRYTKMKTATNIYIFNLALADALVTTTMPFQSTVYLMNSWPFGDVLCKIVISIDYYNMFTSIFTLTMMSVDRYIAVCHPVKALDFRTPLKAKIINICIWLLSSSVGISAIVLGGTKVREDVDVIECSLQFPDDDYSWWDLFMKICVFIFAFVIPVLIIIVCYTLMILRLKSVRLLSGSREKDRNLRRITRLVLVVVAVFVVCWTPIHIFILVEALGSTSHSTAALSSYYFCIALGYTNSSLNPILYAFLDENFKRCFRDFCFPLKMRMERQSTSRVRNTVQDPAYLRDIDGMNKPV

Mu-type opioid receptor = Mu-type opioid receptor (Homo sapiens, UniProt P35372); assay: SAR Analysis of Antagonists of the MOR Receptor using an Image-Based Assay - Set 3. [Related pubchem assays (depositor defined):AID1777, AID1785, AID1786, AID1966, AID2133, AID2136, AID2284, AID2285, AID2420]; assay type: functional
Sequence of Mu-type opioid receptor (P35372 whole entry): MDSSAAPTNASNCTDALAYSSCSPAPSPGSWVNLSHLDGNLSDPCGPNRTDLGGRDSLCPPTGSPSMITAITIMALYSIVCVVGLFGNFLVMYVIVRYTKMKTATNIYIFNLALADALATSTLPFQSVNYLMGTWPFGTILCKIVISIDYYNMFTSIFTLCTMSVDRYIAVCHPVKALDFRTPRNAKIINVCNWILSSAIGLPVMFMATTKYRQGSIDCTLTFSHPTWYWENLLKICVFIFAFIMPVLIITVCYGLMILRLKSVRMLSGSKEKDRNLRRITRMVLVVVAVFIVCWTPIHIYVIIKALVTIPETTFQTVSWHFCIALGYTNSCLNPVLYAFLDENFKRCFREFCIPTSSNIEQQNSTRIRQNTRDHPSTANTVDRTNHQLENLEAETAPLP

[10] = target: T2, Kappa-type opioid receptor; assay: SAR analysis of Antagonists of the Kappa Opioid Receptor (KOR) using an Image-Based Assay - Set 4. [Related pubchem assays (depositor defined):AID1777, AID1785]; assay type: functional
[11] = target: Delta-type opioid receptor (Homo sapiens, UniProt P41143); assay: SAR Analysis of Antagonists of the DOR Receptor using an Image-Based Assay - Set 3. [Related pubchem assays (depositor defined):AID1777, AID1785]; assay type: functional;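 also: U2OS cells expressing DOR1 and beta-arrestin GFP stimulated with 100 nM SNC80; imaging of GFP-tagged beta-arrestin moving into spots after receptor activation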
Sequence of Delta-type opioid receptor (P41143 whole entry): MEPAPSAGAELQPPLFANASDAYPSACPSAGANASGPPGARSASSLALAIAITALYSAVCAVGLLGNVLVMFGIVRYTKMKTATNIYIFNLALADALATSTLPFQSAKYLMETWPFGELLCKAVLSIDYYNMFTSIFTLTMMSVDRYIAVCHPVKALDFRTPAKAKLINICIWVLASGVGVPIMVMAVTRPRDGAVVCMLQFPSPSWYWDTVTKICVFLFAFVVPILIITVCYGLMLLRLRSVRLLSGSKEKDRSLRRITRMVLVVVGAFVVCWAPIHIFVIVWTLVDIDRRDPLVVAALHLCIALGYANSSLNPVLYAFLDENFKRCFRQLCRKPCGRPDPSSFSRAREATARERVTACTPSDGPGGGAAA

[12] = target: T2, Kappa-type opioid receptor; assay: SAR analysis of small molecule antagonists of the kappa opioid receptor via a luminescent beta-arrestin assay - Set 4. [Related pubchem assays (depositor defined):AID1777, AID1778, AID1785, AID1786, AID1966, AID2133, AID2136, AID2285]; assay type: functional
[13] = target: Melanin-concentrating hormone receptor 1 (Homo sapiens, UniProt Q99705); assay: Late-stage fluorescence-based counterscreen for antagonists of the G-protein coupled receptor 7 (GPR7): cell-based dose response assay to identify antagonists of the melanin-concentrating hormone receptor 1 (MCHR1). [Related pubchem assays (depositor defined):AID1861, AID1880, AID1952, AID2148, AID2251, AID2257, AID485339]; assay type: functional;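 also: stimulated with 30 nM MCH peptide agonist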
Sequence of Melanin-concentrating hormone receptor 1 (Q99705 whole entry): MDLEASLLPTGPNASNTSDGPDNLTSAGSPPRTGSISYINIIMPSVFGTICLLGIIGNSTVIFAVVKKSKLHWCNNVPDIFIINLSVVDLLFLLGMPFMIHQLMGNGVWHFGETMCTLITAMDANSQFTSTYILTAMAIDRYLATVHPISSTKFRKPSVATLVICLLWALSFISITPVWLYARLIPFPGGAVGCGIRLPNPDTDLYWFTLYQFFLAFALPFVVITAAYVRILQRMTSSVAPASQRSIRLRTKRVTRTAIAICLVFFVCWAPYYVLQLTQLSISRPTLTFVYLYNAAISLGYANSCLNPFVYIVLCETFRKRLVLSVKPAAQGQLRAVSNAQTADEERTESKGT

T1 sequence (P98170 whole entry): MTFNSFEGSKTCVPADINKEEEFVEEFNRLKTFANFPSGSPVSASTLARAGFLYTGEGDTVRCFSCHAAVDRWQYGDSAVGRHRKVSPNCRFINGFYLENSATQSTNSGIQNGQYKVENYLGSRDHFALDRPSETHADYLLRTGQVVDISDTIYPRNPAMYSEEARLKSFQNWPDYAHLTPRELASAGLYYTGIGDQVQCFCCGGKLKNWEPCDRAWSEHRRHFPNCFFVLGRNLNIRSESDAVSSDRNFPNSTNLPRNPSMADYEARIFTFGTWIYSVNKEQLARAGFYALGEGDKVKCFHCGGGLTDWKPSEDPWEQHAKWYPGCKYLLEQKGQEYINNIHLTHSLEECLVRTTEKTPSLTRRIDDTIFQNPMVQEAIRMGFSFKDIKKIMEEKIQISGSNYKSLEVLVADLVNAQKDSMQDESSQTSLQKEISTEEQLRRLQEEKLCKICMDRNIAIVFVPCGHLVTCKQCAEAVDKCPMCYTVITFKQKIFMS

In the case of CCOc1ccc2cc(C(=O)c3ccccc3)c(=O)oc2c1, the IC50 [1] was > 100 µM (not active) and the IC50 [2] was > 100 µM (inactive).
For Cc1ccc(O)c(CCc2ccccc2)n1, the EC50 (T-cell) was 9.49 µM (active).
With Cc1cc(C)nc(N/N=C/C2=C(O)CC(c3ccc(F)cc3)CC2=O)n1 (configuration not stated) the IC50 (Beta-galactosidase) was > 66.6 µM (inactive), the EC50 (cells [3]) was 15.9 µM (active) and the IC50 [4] was > 66.6 µM (inactive). The CC50 (Vero) was > 25 µM (active) and the EC50 (cells [5]) was > 350 µM (not active).
In the case of Cc1ccc(OCCOc2cccc(Br)c2)c([N+](=O)[O-])n1, the EC50 [6] was 27.6 µM (active), the EC50 [7] was 5.57 µM (active) and the EC50 [8] was > 50 µM (inactive).
With CC(C)N(CCNC(=O)c1ccc(CNS(=O)(=O)c2ccc3ccccc3c2)cc1)Cc1ccccc1 the IC50 [9] was 5.52 µM (active), the IC50 (Mu-type opioid receptor) was > 32 µM (inactive) and the IC50 [10] was 0.16 µM (active). For the same compound, the IC50 [11] was 31.3 µM (inactive) and the IC50 [12] was 2.33 µM (active).
For O=C(C1CCCCN1Cc1ccccc1)N1CCN(c2ccc([N+](=O)[O-])cc2)CC1 (configuration not stated), the IC50 [13] was 11.3 µM (inactive).
